According to US20210236468A1, “COMPOSITION FOR PREVENTING OR TREATING CANCER, COMPRISING A VASCULAR DISRUPTING AGENT AND TAXANE COMPOUND” (Chong Kun Dang Pharmaceutical Corp., priority 2018, published 2021):
Marks after values point to notes of the source that are not given here.

Legend:
[1] = test system: A-549 cancer cell lines; assay: Anti-cancer activity (tumor volume) in A-549 lung cancer xenograft Balb/c nude mice; assay type: in vivo, human; conditions: A549 xenograft, docetaxel 2.5 mg/kg ip once a week, CKD-516 4 mg/kg po daily, eight weeks, FIG. 3, FIG. 4
Description: A-549 cancer cell lines (1×10^7 cells), which are human lung cancer cell lines purchased from the ATCC, were subcutaneously injected into the mice. Particularly, a needle point was inserted into mice in the left side before injecting cancer cells, and moved from side to side to inject the cancer cells and to identify that an administered solution was not leaked out, such that a tumorigenesis was observed. Animals whose tumor sizes reached 100 mm^3 to 250 mm^3 were selected and used for an experiment.
Experimental groups were randomly divided as shown in the table 3 above. • Vehicle: Daily for eight weeks, oral administration; • Docetaxel: 2.5 mg/kg, once a week for eight weeks, intraperitoneal administration; • CKD-516: 4 mg/kg, daily for eight weeks, oral administration; and • CKD-516+Docetaxel: CKD-516 (4 mg/kg, daily for eight weeks, oral administration) to be administered first+Docetaxel (2.5 mg/kg, once a week for eight weeks, intraperitoneal administration).
For the tumor volume, statistical processing was performed by using a statistical processing program (GraphPad PRISM® Version 5.0, GraphPad Software, the U.S.).

[2] = test system: H1975 cell lines; assay: Anti-cancer activity (tumor volume) in H1975 lung cancer xenograft nude mice; assay type: in vivo, human; conditions: CKD-516 3 mg/kg ip, twice a week for three weeks; for Tumor volume / tumor growth, result in words: FIG. 1, FIG. 2
Protocol: As a human tumor cell line, a lung cancer cell line, i.e., H1975 cell lines were purchased from the American Type Culture Collections (ATCC). One vial of the cell lines was inserted into an RPMI1640 medium (Gibco, 22400) containing a heatinactivated 10% fetal bovine serum (FBS; Gibco, 10082-742), and cultured in a 5% CO2 incubator at 37° C. The resulting cells were washed with PBS, after which a 10-fold dilution of 2.5% Trypsin-EDTA (Gibco, 15090) was added thereto, such that cells were isolated therefrom. Then, centrifugation was performed (at 1,000 rpm for 5 min), after which supernatant thereof was discarded, such that a cell suspension was obtained by means of a new medium. A survival rate was identified with a microscope to make a preparation in an amount of 1.0×10^7 cells/mL.
The five-week old male […] nude mice (Hsd: Athymic Nude-Foxn1^nu) were purchased from Saeron Bio Inc. (Gyeonggi Province in South Korea).
Thus prepared tumor cell lines were subcutaneously (sc) injected by 0.2 ml (2×10^6 cells) into a back of the mice by using a 26-gauge needle syringe. In about three to four weeks after the injection, animals whose tumor sizes reached 170 mm^3 to 220 mm^3 were selected and used for an experiment.
A comparison between a positive control group and groups dosed with a test substance with regard to a negative control group, and a comparison between the positive control group and the groups dosed with a test substance were verified through One-way ANOVA. At this time, assuming that significance was accepted, a post-hoc test was performed with Duncan test, if an equal variance was accepted, and with Dunnett's test, if the equal variance was not accepted. If p-value is 0.05 or less, significance was accepted, and SPSS 10.1, a statistical program in common use, was used.

[3] = test system: H460 cancer cell lines; assay: Anti-cancer activity (tumor volume) in H460 lung cancer tissue-transplanted Balb/c nude mice; conditions: H460 tumor transplant, paclitaxel 20 mg/kg iv, CKD-516 2.5 mg/kg ip, once a week for three weeks, FIG. 5, FIG. 6
Protocol: The four-week old male Balb/c nude mice were purchased from Central Lab Animal Inc.
In 20 to 25 days later, the mice were subjected to euthanasia by means of cervical vertebral dislocation, after which a solid cancer proliferated in the mice was sterilely isolated therefrom to obtain fresh cancer tissues, from which connective tissues, necrotic tissues, skins, etc. were removed.
The cancer tissues were divided by 50 mg in a sterile state, and subcutaneously transplanted into the mice by using a 16-gauge trocar. In 12 days after the transplantation, the mice whose cancer tissues were proliferated up to a certain size, were selected and used for the experiment.
Paclitaxel was dissolved in an excipient (excipient 2), which was prepared by mixing cremophor, ethanol and saline at a ratio of 1:1:8, and prepared in accordance with the administered dose for each group as shown in the following table 4.
The anti-cancer activity was determined based on a tumor volume. The tumor volume was obtained by measuring a long axis and a short axis of the tumor by means of electronic callipers (CD-15CPX, Mitutoyo Corp., Japan) and calculating measured values according to a following equation (twice a week):
Tumor volume (mm^3)=(Long axis length×Short axis length^2)/2.

[4] = date 4/10, docetaxel 6 mg/kg ip
[5] = date 4/14, docetaxel 6 mg/kg ip
[6] = date 4/17, docetaxel 6 mg/kg ip
[7] = date 4/21, docetaxel 6 mg/kg ip
[8] = date 4/24 (end of experiment), docetaxel 6 mg/kg ip

COc1cc(C(=O)c2ccc(-c3csc(NC(=O)[C@@H](N)C(C)C)n3)cc2-n2cncn2)cc(OC)c1OC [CKD-516, (S)—N-(4-(3-(1H-1,2,4-triazole-1-yl)-4-(3,4,5-trimethoxybenzoyl)phenyl)thiazole-2-yl)-2-amino-3-methylbutanamide]
Tumor volume / tumor growth, result in words [1]: the tumor did not almost grow | Tumor volume (mm^3), mean ([2]; date 4/7, docetaxel 6 mg/kg ip): 121.8 mm^3 | Tumor volume (mm^3), mean [2, 4]: 146.3 mm^3 | Tumor volume (mm^3), mean [2, 5]: 321.3 mm^3 | Tumor volume (mm^3), mean [2, 6]: 432.4* mm^3 | Tumor volume (mm^3), mean [2, 7]: 504.9 mm^3 | Tumor volume (mm^3), mean [2, 8]: 790.7*** mm^3 | Tumor volume / tumor growth, result in words ([2]; docetaxel 6 mg/kg ip): showed a similar tendency to the group dosed with docetaxel | Tumor volume / tumor growth, result in words [3]: showed a similar tendency to the group dosed with paclitaxel

CC(=O)O[C@H]1C(=O)[C@@]2(C)[C@H]([C@H](OC(=O)c3ccccc3)[C@]3(O)C[C@H](OC(=O)[C@H](O)[C@@H](NC(=O)c4ccccc4)c4ccccc4)C(C)=C1C3(C)C)[C@]1(OC(C)=O)CO[C@@H]1C[C@@H]2O [paclitaxel]
Tumor volume / tumor growth, result in words [3]: a growth of the tumor was decreased over time compared to the negative control group, but the tumor volume was continuously increased

CC(=O)O[C@@]12CO[C@@H]1C[C@H](O)[C@@]1(C)C(=O)[C@H](O)C3=C(C)[C@@H](OC(=O)[C@H](O)[C@@H](NC(=O)OC(C)(C)C)c4ccccc4)C[C@@](O)([C@@H](OC(=O)c4ccccc4)[C@H]21)C3(C)C [Docetaxel, docetaxel]
Tumor volume / tumor growth, result in words [1]: no significant difference in a growth rate of the tumor compared to the negative control group | Tumor volume (mm^3), mean ([2]; date 4/7, docetaxel 6 mg/kg ip): 123.4 mm^3 | Tumor volume (mm^3), mean [2, 4]: 178.0 mm^3 | Tumor volume (mm^3), mean [2, 5]: 309.6 mm^3 | Tumor volume (mm^3), mean [2, 6]: 460.5 mm^3 | Tumor volume (mm^3), mean [2, 7]: 500.2*** mm^3 | Tumor volume (mm^3), mean [2, 8]: 513.9*** mm^3 | Tumor volume / tumor growth, result in words ([2]; docetaxel 6 mg/kg ip): a growth of the tumor was decreased over time compared to the negative control group, but the tumor volume was continuously increased
